In patent publication US7807445B2, “Antibiotic compound” (Merck Sharp and Dohme de Espana, S.A., priority 2004, dated 2010):
In brackets after ≈: the same amount, converted by molar mass.

Experiments:
[1] = tested on: various strains of S. aureus, S. pneumoniae, E. faecalis, E. faecium, B. subtilis and E. coli, including MRSA, VRE, multidrug-resistant E. faecium …; experiment: Microbroth dilution assay (MIC), antibacterial activity; format: cell-based; settings: various strains of S. aureus, S. pneumoniae, E. faecalis, E. faecium, B. subtilis and E. coli, including MRSA, VRE, multidrug-, macrolide- and linezolid-resistant species
Experimental: (§1) The protocols used to determine the antibacterial activity of Compound I are described below.
(§2) • Cation-Adjusted Mueller Hinton Broth (MH; BBL) • 50% Lysed Horse Blood (LHB; BBL) (stored frozen) • RPMI 1640 (BioWhittaker) • Human Serum (Pel-Freez) • RPMI 1640 (BioWhittaker) • Haemophilus Test Medium (HTM, Remel) • Trypticase Soy Broth (TSB, 5 mL/tube; BBL) • 0.9% Sodium Chloride (Saline; Baxter) • Trypticase Soy+5% Sheep Blood Agar Plates (TSA; BBL) • Sabouraud Dextrose Agar Plates (BBL) • Chocolate Agar Plates (BBL) • 2× Skim Milk (Remel) • Microbank Beads (Kramer Scientific) • MIC 2000 Microtiter plate inoculator. • 2× Trypticase Soy Broth (TSB, BBL)+15% glycerol/50% horse serum. • 96-Well Microtiter plates, lids, inoculum trays (Dynex Laboratories) • 8-Channel Finn Multichannel pipettor, 0.5-10 μL volume Methods: Media Preparation
(§3) Cation-Adjusted Mueller Hinton Broth (BBL): Prepared according to manufacturer's instructions (22 gms dissolved in 1000 mL water; autoclaved 22 minutes). Stored refrigerated. Filter-sterilized before use using a Corning 0.45 Tm cellulose acetate filter.
(§4) Cation-Adjusted Mueller Hinton+2.5% Lysed Horse Blood: Aseptically add 5 mL 50% lysed horse blood to 100 mL Cation-Adjusted Mueller Hinton Broth. Filter-sterilize before use using a Corning 0.45 Tm cellulose acetate filter. […]

[2] = as above; format: cell-based; settings: range over all test strains (S. aureus, S. pneumoniae, E. faecalis, E. faecium, B. subtilis, E. coli and resistant strains); 35° C., read to no growth after 22-24 hours; NCCLS guidelines; read-out: minimum inhibitory concentration (MIC)
Experimental: as §1, §2, §3, §4

C=C1C[C@@]23C=CC(=O)[C@@](C)(CCC(=O)Nc4c(O)ccc(C(=O)O)c4O)C2C[C@@H]1CC3 (stereo in doubt) [Compound I]
antibacterial activity [1]: demonstrates antibacterial activity | MIC [2]: 0.5 to 32 µg/mL (≈ 1.18 to 75.2 µM)
